# From patent publication US20080249129A1, “Compositions and Methods for Treatment of Protein Misfolding Diseases” (priority 2004, published 2008)
# Counter-ions that a name gives are not always drawn. Peptide text beside a SMILES is read from it.
# Tested on: yeast expressing a toxic amount and form of huntingtin
# Format: cell-based
# Settings: not given
# Excerpt: (§1) An exemplary aS-expressing yeast cell for use in a growth rescue screen described herein is yeast expressing two copies of aS, as described in Outeiro et al. (2003) Science 302:1772. An exemplary htt-expressing strain for use in a growth rescue screen described herein is yeast expressing a fusion protein comprising a FLAG tag and an expanded htt polyQ (103) domain, as described in Meriin et al. (2002) J. Cell Biol. 158:591.
# (§2) Phenotype MicroArray™ (Biolog, Inc., Hayward, Calif.) was employed to evaluate the ability of various compounds to rescue viability in yeast expressing a toxic amount and form of huntingtin. […] Bioscreen C MBR (Labsystem Corp, Helsinki, Finland) was also used to evaluate the effects of the clioquinols.
row,Compound,effect on huntingtin-mediated toxicity (rescue of viability)
1,Oc1cccc2cccnc12 [8-Hydroxyquinoline],suppressors of huntingtin-mediated toxicity
2,CC(Cc1ccc(O)c(O)c1)C(C)Cc1ccc(O)c(O)c1 (stereo not drawn) [nordihydroguaiaretic acid],suppressors of huntingtin-mediated toxicity

# Same assay, conditions: yeast expressing toxic huntingtin; Phenotype MicroArray
row,Compound,effect on huntingtin-mediated toxicity (rescue of viability)
1,"Cc1ccc2c(Cl)cc(Cl)c(O)c2n1 [5,7-Dichloro-8-hydroxy-quinaldine]",suppressors of huntingtin-mediated toxicity
2,O=[N+]([O-])c1ccc(O)c2ncccc12 [8-Hydroxy-5-nitroquinoline],suppressors of huntingtin-mediated toxicity
3,N=C(N)N [guanidine hydrochloride],suppressors of huntingtin-mediated toxicity
4,Cc1cccc(O)c1 [m-cresol],suppressors of huntingtin-mediated toxicity

# Tested on: yeast expressing two copies of alpha synuclein
# Format: cell-based
# Settings: not given
# Excerpt: as §1
# (§3) Phenotype MicroArray™ (Biolog, Inc., Hayward, Calif.) was employed to evaluate the effects of various compounds in yeast expressing one or two copies of alpha synuclein.
row,Compound,effect on alpha synuclein-mediated toxicity
1,"CCC(O)C(=O)O (racemic) [D,L-a-hydroxy-butyric acid]",suppressors of alpha synuclein-mediated toxicity
2,Oc1c(Cl)cc(Cl)c(Cl)c1Cc1c(O)c(Cl)cc(Cl)c1Cl [hexachlorophene],suppressors of alpha synuclein-mediated toxicity
3,CC(C)Cc1ccc(C(C)C(=O)O)cc1 (stereo not drawn) [ibuprofen],suppressors of alpha synuclein-mediated toxicity
4,CC(Cc1ccc(O)c(O)c1)C(C)Cc1ccc(O)c(O)c1 (stereo not drawn) [nordihydroguaiaretic acid],suppressors of alpha synuclein-mediated toxicity
5,sodium metavanadate,suppressors of alpha synuclein-mediated toxicity

# Same assay, conditions: yeast expressing two copies of alpha synuclein; Phenotype MicroArray
row,Compound,effect on alpha synuclein-mediated toxicity
1,Cc1cccc(O)c1 [m-cresol],suppressors of alpha synuclein-mediated toxicity
2,O=[Si]([O-])[O-].[Na+].[Na+] [sodium metasilicate],suppressors of alpha synuclein-mediated toxicity
3,ruthenium red,suppressors of alpha synuclein-mediated toxicity

# Tested on: yeast expressing one copy of alpha synuclein
# Format: cell-based
# Settings: not given
# Excerpt: as §3
row,Compound,effect on alpha synuclein-mediated toxicity
1,O=S([O-])([O-])=S.[Na+].[Na+] [sodium thiosulfate],enhancers of alpha synuclein-mediated toxicity
2,sodium phosphate [sodium phosphate pH 7],enhancers of alpha synuclein-mediated toxicity

# Same assay, conditions: yeast expressing one copy of alpha synuclein; Phenotype MicroArray
row,Compound,effect on alpha synuclein-mediated toxicity
1,CCCCCCCCCCCCC/C=C/[C@@H](O)[C@@H](N)CO [D-Sphingosine],enhancers of alpha synuclein-mediated toxicity
2,CC[C@H](C)[C@H](N)C(=O)O [L-Isoleucine],enhancers of alpha synuclein-mediated toxicity
3,CSCC[C@H](NC(=O)[C@@H](N)Cc1ccccc1)C(=O)O [Phe-Met] (H-Phe-Met-OH),enhancers of alpha synuclein-mediated toxicity
4,COc1ccc(C[C@H]2NC[C@H](O)[C@H]2OC(C)=O)cc1 [anisomycin],enhancers of alpha synuclein-mediated toxicity
5,CC1=C(C(=O)Nc2ccccc2)SCCO1 [carboxin],enhancers of alpha synuclein-mediated toxicity
6,COc1ccc2c(c[n+](C)c3c4cc5c(cc4ccc23)OCO5)c1OC [chelerythrine],enhancers of alpha synuclein-mediated toxicity
7,CN(C)C(=O)/N=N/C(=O)N(C)C [diamide],enhancers of alpha synuclein-mediated toxicity
8,OP(O)(=S)S [dithiophosphate],enhancers of alpha synuclein-mediated toxicity
9,CCCCCCCCCCCC[N+](C)(C)C.[Br-] [dodecyltrimethyl ammonium bromide],enhancers of alpha synuclein-mediated toxicity
10,CC[C@@]1([C@@H]2O[C@@H]([C@H]3O[C@@](O)(CO)[C@H](C)C[C@@H]3C)C[C@@H]2C)CC[C@H]([C@]2(C)CC[C@]3(C[C@H](O)[C@@H](C)[C@@H]([C@@H](C)[C@@H](OC)[C@H](C)C(=O)O)O3)O2)O1 [monensin],enhancers of alpha synuclein-mediated toxicity
11,CC1=C(C(=O)Nc2ccccc2)S(=O)(=O)CCO1 [oxycarboxin],enhancers of alpha synuclein-mediated toxicity
12,CC1=CC(=O)c2c(O)cccc2C1=O [plumbagin],enhancers of alpha synuclein-mediated toxicity
13,"O=C([O-])c1ccccc1.[Na+] [sodium benzoate pH 5.2, sodium benzoate]",enhancers of alpha synuclein-mediated toxicity
14,OP(O)(O)=S [thiophosphate],enhancers of alpha synuclein-mediated toxicity

# Tested on: yeast expressing a toxic amount and form of huntingtin
# Format: cell-based
# Settings: not given
# Remark: another data set of the same source
# Excerpt: For example, the Bioscreen-C system (Labsystem Corp, Helsinki, Finland) permits the growth of up to 200 cell cultures at the same time, under different conditions. Growth rates are monitored optically, recorded automatically, and stored as digital files for further manipulations. […] Mutants and chemicals from a variety of sources will be tested.
# as §2
row,Compound,effect on huntingtin-mediated toxicity
1,Oc1cccc2cccnc12 [8-Hydroxyquinoline],alleviated huntingtin-mediated toxicity

# Same assay, conditions: yeast expressing toxic huntingtin; Bioscreen C MBR
row,Compound,effect on huntingtin-mediated toxicity
1,"Cc1ccc2c(Cl)cc(Cl)c(O)c2n1 [5,7-Dichloro-8-hydroxy-quinaldine]",alleviated huntingtin-mediated toxicity
2,O=[N+]([O-])c1ccc(O)c2ncccc12 [8-Hydroxy-5-nitroquinoline],alleviated huntingtin-mediated toxicity
